Test results from PubChem BioAssay AID248 (DTP/NCI, 2004).
Where “and” joins values, the source holds several entries; their conditions need not be identical. Identical values can stand only once. Inconclusive results and toxic doses are left out. Cut-off read from the data, not from the text of the source: active = T/C of 150% or more; inactive = T/C below 125%.

System: L1210 leukemia ip in BDF1 mice, survival T/C
Test: NCI In Vivo Anticancer Drug Screen. Data for tumor model L1210 Leukemia (intraperitoneal) in B6D2F1 (BDF1) mice
Settings: endpoint: mean survival time, higher = longer survival
In short: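 Transplantable tumor model; survival measured in treated vs vehicle control mice. Value = treated/control.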

[1] = dose: 100.0 mg/kg/injection, schedule: Q01DX009 (ip), vehicle: Klucel (hydroxypropylcellulose) (HPC)
[2] = dose: 100.0 mg/kg/injection, schedule: Q04DX003 (ip), vehicle: Klucel (hydroxypropylcellulose) (HPC)
[3] = dose: 200.0 mg/kg/injection, schedule: Q01DX009 (ip), vehicle: Klucel (hydroxypropylcellulose) (HPC)
[4] = dose: 200.0 mg/kg/injection, schedule: Q04DX003 (ip), vehicle: Klucel (hydroxypropylcellulose) (HPC)
[5] = dose: 400.0 mg/kg/injection, schedule: Q01DX009 (ip), vehicle: Klucel (hydroxypropylcellulose) (HPC)
[6] = dose: 100.0 mg/kg/injection, schedule: Q01DX001 (ip), vehicle: Klucel (hydroxypropylcellulose) (HPC)
[7] = dose: 200.0 mg/kg/injection, schedule: Q01DX001 (ip), vehicle: Klucel (hydroxypropylcellulose) (HPC)
[8] = dose: 200.0 mg/kg/injection, schedule: Q04DX002 (ip), vehicle: saline
[9] = dose: 50.0 mg/kg/injection, schedule: Q04DX003 (ip), vehicle: Klucel (hydroxypropylcellulose) (HPC)

Measured: T/C

Cc1nccc2cc3c(cc12)c1ccccc1n3C
inactive: dose: 37.5 mg/kg/injection, schedule: Q04DX003 (ip), vehicle: Klucel (hydroxypropylcellulose) (HPC) 105 % of control | dose: 75.0 mg/kg/injection, schedule: Q04DX003 (ip), vehicle: Klucel (hydroxypropylcellulose) (HPC) 111 % of control | dose: 150.0 mg/kg/injection, schedule: Q04DX003 (ip), vehicle: Klucel (hydroxypropylcellulose) (HPC) 105 % of control | dose: 300.0 mg/kg/injection, schedule: Q04DX003 (ip), vehicle: Klucel (hydroxypropylcellulose) (HPC) 95 % of control

CCCCCCCCCCCC(=O)N1CCCCC1
inactive: dose: 100.0 mg/kg/injection, schedule: Q01DX001 (ip), vehicle: saline with Tween-80 101 % of control | dose: 200.0 mg/kg/injection, schedule: Q01DX001 (ip), vehicle: saline with Tween-80 97 % of control | dose: 400.0 mg/kg/injection, schedule: Q01DX001 (ip), vehicle: saline with Tween-80 89 % of control

CCCN=C(N)N=C(N)N
inactive: dose: 50.0 mg/kg/injection, schedule: Q01DX009 (ip), vehicle: water 108 % of control | dose: 100.0 mg/kg/injection, schedule: Q01DX001 (ip), vehicle: water 102 % of control | dose: 100.0 mg/kg/injection, schedule: Q01DX009 (ip), vehicle: water 95 % of control | dose: 100.0 mg/kg/injection, schedule: Q04DX003 (ip), vehicle: water 104 % of control | dose: 200.0 mg/kg/injection, schedule: Q01DX001 (ip), vehicle: water 102 % of control | dose: 200.0 mg/kg/injection, schedule: Q04DX003 (ip), vehicle: water 102 % of control | dose: 400.0 mg/kg/injection, schedule: Q01DX001 (ip), vehicle: water 102 % of control

CC(=O)OC(C#N)c1cccc([N+](=O)[O-])c1 (stereo not given)
inactive: dose: 6.25 mg/kg/injection, schedule: Q04DX002 (ip), vehicle: Klucel (hydroxypropylcellulose) (HPC) 97 % of control | dose: 12.5 mg/kg/injection, schedule: Q04DX002 (ip), vehicle: Klucel (hydroxypropylcellulose) (HPC) 102 % of control | dose: 25.0 mg/kg/injection, schedule: Q04DX002 (ip), vehicle: Klucel (hydroxypropylcellulose) (HPC) 100 % of control and 92 % of control

C[N+]1(C)C2CSCC1CC(O)C2 (stereo not given)
inactive: dose: 12.5 mg/kg/injection, schedule: Q01DX009 (ip), vehicle: saline 105 % of control | dose: 12.5 mg/kg/injection, schedule: Q04DX003 (ip), vehicle: saline 104 % of control | dose: 25.0 mg/kg/injection, schedule: Q01DX009 (ip), vehicle: saline 117 % of control | dose: 25.0 mg/kg/injection, schedule: Q04DX003 (ip), vehicle: saline 98 % of control | dose: 50.0 mg/kg/injection, schedule: Q01DX009 (ip), vehicle: saline 106 % of control | dose: 50.0 mg/kg/injection, schedule: Q04DX003 (ip), vehicle: saline 102 % of control | dose: 100.0 mg/kg/injection, schedule: Q04DX003 (ip), vehicle: saline 101 % of control

O=CC(O)C(O)C(O)C(O)CO (stereo not given)
inactive: dose: 100.0 mg/kg/injection, schedule: Q01DX009 (ip), vehicle: saline 98 % of control | dose: 200.0 mg/kg/injection, schedule: Q01DX009 (ip), vehicle: saline 96 % of control | dose: 400.0 mg/kg/injection, schedule: Q01DX009 (ip), vehicle: saline 107 % of control | dose: 800.0 mg/kg/injection, schedule: Q01DX009 (ip), vehicle: saline 98 % of control

Nc1ncnc2c1ncn2C1OC(C(=O)NCC(=O)O)C(O)C1O (stereo not given)
inactive: dose: 100.0 mg/kg/injection, schedule: Q01DX005 (ip), vehicle: saline 113 % of control | dose: 200.0 mg/kg/injection, schedule: Q01DX005 (ip), vehicle: saline 100 % of control | dose: 400.0 mg/kg/injection, schedule: Q01DX005 (ip), vehicle: saline 101 % of control

CN(C)c1ccc(C=O)cc1Br
inactive: [1] 98 % of control | [2] 100 % of control | [3] 96 % of control | [4] 103 % of control | [5] 96 % of control | dose: 400.0 mg/kg/injection, schedule: Q04DX003 (ip), vehicle: Klucel (hydroxypropylcellulose) (HPC) 101 % of control

O=C1C(Cl)=C(N=Nc2c(Cl)c(O)c3ccccc3c2O)C(=O)c2ccccc21
inactive: dose: 12.5 mg/kg/injection, schedule: Q01DX009 (ip), vehicle: acetone 105 % of control | dose: 25.0 mg/kg/injection, schedule: Q01DX009 (ip), vehicle: acetone 107 % of control | dose: 50.0 mg/kg/injection, schedule: Q01DX009 (ip), vehicle: acetone 104 % of control | dose: 100.0 mg/kg/injection, schedule: Q01DX001 (ip), vehicle: carboxymethylcellulose (CMC) 97 % of control

NC(CC1C=CC=CC1)C(=O)O (stereo not given)
inactive: dose: 50.0 mg/kg/injection, schedule: Q01DX001 (ip), vehicle: saline 108 % of control | dose: 100.0 mg/kg/injection, schedule: Q01DX001 (ip), vehicle: saline 102 % of control | dose: 200.0 mg/kg/injection, schedule: Q01DX001 (ip), vehicle: saline 98 % of control | dose: 400.0 mg/kg/injection, schedule: Q01DX001 (ip), vehicle: saline 96 % of control

c1ccc2cc(C3OCC4(CCC4)CO3)ccc2c1
inactive: [6] 94 % of control | [7] 104 % of control | dose: 400.0 mg/kg/injection, schedule: Q01DX001 (ip), vehicle: Klucel (hydroxypropylcellulose) (HPC) 104 % of control

CC(=O)OC1CC(n2cc(C)c(=O)[nH]c2=O)OC1COP(=O)(N1CC1)N1CC1 (stereo not given)
inactive: dose: 50.0 mg/kg/injection, schedule: Q04DX002 (ip), vehicle: saline 107 % of control | [8] 112 % of control

CC(=O)C(C(C)=O)C(=O)c1ccccc1
inactive: dose: 222.0 mg/kg/injection, schedule: Q01DX Z (ip), vehicle: saline 100 % of control | dose: 333.0 mg/kg/injection, schedule: Q01DX Z (ip), vehicle: saline 90 % of control | dose: 500.0 mg/kg/injection, schedule: Q01DX Z (ip), vehicle: saline 103 % of control

Cc1nc(SCc2ccccc2)nc(N)c1CN
inactive: [9] 113 % of control | [6] 93 % of control | [2] 100 % of control | [7] 98 % of control | [4] 104 % of control

O=C1OC(c2ccc(Cl)cc2)=N/C1=C\c1c(Cl)cccc1Cl
inactive: dose: 100.0 mg/kg/injection, schedule: Q04DX002 (ip), vehicle: saline 93 % of control | [8] 107 % of control | dose: 400.0 mg/kg/injection, schedule: Q04DX002 (ip), vehicle: saline 118 % of control

CC(=O)N(NC(=O)c1cccnc1)C(C)=O
inactive: dose: 3.75 mg/kg/injection, schedule: Q01DX015 (oral), vehicle: carboxymethylcellulose (CMC) 101 % of control | dose: 7.5 mg/kg/injection, schedule: Q01DX015 (oral), vehicle: carboxymethylcellulose (CMC) 100 % of control | dose: 15.0 mg/kg/injection, schedule: Q01DX015 (oral), vehicle: carboxymethylcellulose (CMC) 100 % of control | dose: 30.0 mg/kg/injection, schedule: Q01DX015 (oral), vehicle: carboxymethylcellulose (CMC) 106 % of control | dose: 62.0 mg/kg/injection, schedule: Q01DX Z (oral), vehicle: carboxymethylcellulose (CMC) 91 % of control | dose: 125.0 mg/kg/injection, schedule: Q01DX Z (oral), vehicle: carboxymethylcellulose (CMC) 91 % of control | dose: 250.0 mg/kg/injection, schedule: Q01DX Z (oral), vehicle: carboxymethylcellulose (CMC) 95 % of control

CC1(O)c2ccccc2-c2nc3ccccc3nc21 (stereo not given)
inactive: dose: 50.0 mg/kg/injection, schedule: Q01DX009 (ip), vehicle: saline sonified 89 % of control | dose: 100.0 mg/kg/injection, schedule: Q01DX009 (ip), vehicle: saline sonified 102 % of control | dose: 100.0 mg/kg/injection, schedule: Q04DX003 (ip), vehicle: saline sonified 94 % of control | dose: 200.0 mg/kg/injection, schedule: Q01DX009 (ip), vehicle: saline sonified 102 % of control | dose: 200.0 mg/kg/injection, schedule: Q04DX003 (ip), vehicle: saline sonified 110 % of control | dose: 400.0 mg/kg/injection, schedule: Q04DX003 (ip), vehicle: saline sonified 87 % of control

Cc1cc(C)c(NC(=O)c2ccco2)cc1C
inactive: [1] 105 % of control | [3] 92 % of control | [5] 105 % of control

NC(=O)COc1ccccc1Cl
inactive: [9] 102 % of control | [2] 94 % of control | [4] 93 % of control
